Here are results for 2 molecules from US20090012152A1, “Use of Tetramic Acid Derivatives for Controlling Insects from the Genus of the Plane Lice (Sternorrhyncha)” (Bayer CropScience Aktiengesellschaft, priority 2005, published 2009).

Common to all, as to format: in vivo
Assay [1] concerns Pseudaulacaspis pentagons. Put plainly: Example 22: peach trees treated against Pseudaulacaspis pentagons. To be noted: crawlers on shoots, g a.i./ha/m crown height: Esteem 98, I-4 120. The procedure:
In ten replications, on about 46 m^2, peach trees are treated against Pseudaulacaspis pentagons. Two applications are carried out at an interval of 57 days using a sprayer operated with pressurized air. Here, the active compound Example (I-4) (240 SC) in a tank mix with 0.2% of Dynamic (910 XL) is applied at the stated application rate and the commercial standard Esteem (35 WP) is applied at the stated application rate. The application rate is 935 l of water/ha.
Evaluation is carried out 35 and 79 days after the last treatment by rating the kill of the crawlers on the shoots.

In assay [2] the test system is Myzus persicae. Kind of assay: Example 47: peach trees infested with Myzus persicae. To be noted: live animals on shoots, Henderson and Tilten, g a.i./ha/m crown height: imidacloprid 25, I-4 24; for Effect (%) 7 d: 7 d after application; for Effect (%) 14 d: 14 d after application; for Effect (%) 21 d: 21 d after application. The protocol:
In three replications, under practical conditions, about 18-year-old peach trees of the cultivar “Vivian” infested with Myzus persicae are treated with Example (I-4) (240 SC) in a tank mix with 0.2% a.i. of rapeseed oil methyl ester (500 EW) in comparison to the commercial standard imidacloprid 200 SL, at the stated application rates. The application is carried out using a motor-operated knapsack sprayer. The application rate is 1000 l of water/ha.
Evaluation is carried out 7, 14 and 21 days after the application by counting the live animals on the shoots. The efficacy is then calculated by calculating the effect on the population in percent according to Henderson and Tilten.

The next assay concerns Aleurothrixus floccosus. Put plainly: Example 39: orange trees treated against Aleurothrixus floccosus. The conditions noted are these: on branches, % a.i.: Juvinal 0.005, I-4 0.0072. The procedure:
In three replications, about 55-year-old orange trees of the cultivar “Amargo” are treated against Aleurothrixus floccosus. The application is carried out using a motor-operated knapsack sprayer. Here, the active compound Example (I-4) (240 SC), in a tank mix with 0.1% a.i. of rapeseed oil methyl ester (500 EW), is tested at the stated application rate against the standard Juvinal (100 EC) at the stated application rates, applied once. The application rate is 2630 l of water/ha.
Evaluation is carried out 36, 51, 62 and 76 days after the treatment by rating the kill on the branches.

For another assay, the system named is Paratrioza cockerelli. Kind of assay: Example 7: bell peppers treated against Paratrioza cockerelli. To be noted: nymphs on leaves, g a.i./ha: imidacloprid 52.6, I-4 72, dimethoate 561; for Kill (%) 7 d: 7 d after treatment; for Kill (%) 15 d: 15 d after treatment. The protocol:
In four replications, plots of a size of about 7 m^2 with bell peppers of the cultivar “Jupiter” are treated against Paratrioza cockerelli. The application is carried out with a knapsack sprayer operated with pressurized air. Here, the active compound Example (I-4) (240 SC) is applied in a tank mix with 0.2% a.i. of rapeseed oil methyl ester (500 EW) and the commercial standards imidacloprid 192 SC and dimethoate (480 EC) are applied in a tank mix with 0.125% Induce at the stated application rates. The application is carried out with an application rate of 467 l of water/ha.
Evaluation is carried out 7 and 15 days after the treatment by rating the kill of the animals (nymphs) on the leaves.

The subject of assay [3] is Pseudaulacaspis prunicola. Kind of assay: Example 23: Japanese apricot trees treated against Pseudaulacaspis prunicola. To be noted: 58 days after treatment, nymphs on shoots, % a.i.: Supracide EC 0.04, I-4 0.0075. The protocol: In six replications, about 16-year-old Japanese apricot trees of the cultivar “Shirokag” are treated against Pseudaulacaspis prunicola. The application is carried out using a sprayer. Here, the active compound Example (I-4) (200 SC) is tested against the commercial standard Supracide EC (400 EC), at the stated application rates. The application rate is 1500 l of water/ha.
Evaluation is carried out 58 days after the treatment by rating the kill of the nymphs on the shoots.

The subject of assay [4] is Myzus persicae. Kind of assay: Example 49: potatoes treated against Myzus persicae. The conditions noted are these: live nymphs on leaves, Henderson and Tilten, g a.i./ha: Tamaron 585, I-4 48. The protocol:
In four replications, plots of a size of about 7.5 m^2 with potatoes of the cultivar “BP 1” are treated against Myzus persicae. The application is carried out using a knapsack sprayer operated with pressurized air. Here, the active compound Example (I-4) (240 SC), in a tank mix with 0.2% a.i. of rapeseed oil methyl ester (500 EW), and the commercial standard Tamaron (585 SL) are tested at the stated application rates. Two applications are carried out, at an interval of 7 days. The application rate is 500 l of water/ha.
Evaluation is carried out 7 and 13 days after the first treatment by counting the live animals (nymphs) on the leaves. The efficacy is then calculated by calculating the effect on the population in percent according to Henderson and Tilten.

Assay [5] deals with Myzus persicae. Put plainly: Example 48: aubergine plants treated against Myzus persicae. The conditions noted are these: on leaves, rate (g of a.i./ha): pymethrozine 0.0125, I-4 0.024. The procedure:
In three replications, four aubergine plants (age about 7 months) of the cultivar “Hayabusa” are treated against Myzus persicae. The application is carried out using a motor-operated knapsack sprayer. Here, the active compound Example (I-4) (240 SC), in a tank mix with 0.1% a.i. of rapeseed oil methyl ester (500 EW), and the commercial standard pymethrozine (25 WP) are tested at the stated application rates. The application rate is 3000 l of water/ha.
Evaluation is carried out 7, 14, 21 and 29 days after the treatment by rating the kill of the animals on the leaves.

Another assay concerns Saissetia oleae. Put plainly: Example 13: orange trees treated against Saissetia oleae. The conditions noted are these: nymphs on leaves, g a.i./ha/m crown height: buprofezin 500, I-4 72, I-8 30. The protocol: In three replications, in each case two about 8-year-old orange trees are treated against Saissetia oleae. Here, the active compounds Example (I-4) (240 SC) and Example (I-8) (250 SC) in a tank mix with 0.2% a.i. of rapeseed oil methyl ester (500 EW) at the stated application rate are tested against the commercial standard buprofezin in a tank mix with 0.4% a.i. of Oliocin (800 EW) at the stated application rate. The application is carried out using a motor-operated knapsack sprayer. The application rate is 3000 l of water/ha. Two treatments are carried out, at an interval of 29 days.
Evaluation is carried out 24 and 44 days after the last treatment by rating the kill of the nymphs on the leaves.

Turning to `CCOC(=O)OC1=C(c2cc(C)ccc2C)C(=O)NC12CCC(OC)CC2` (stereo not shown) [Example (I-4)], the “Kill (%) 35 d” value in assay [1] (35 d after last of two treatments) came to 90%. Also, the “Kill (%) 79 d” value in assay [1] (79 d after last of two treatments) amounted to 87%. Besides, in the assay on Myzus persicae [2], the “Effect (%) 7 d” value is on record as 94.0%, the “Effect (%) 14 d” value is 98.9% and the “Effect (%) 21 d” value amounted to 93.3%. In the assay with Aleurothrixus floccosus (36 d after treatment), the “Kill (%) 36 d” value was determined as 81.1%. Moreover, the “Kill (%) 51 d” value with Aleurothrixus floccosus (51 d after treatment) is given as 81.5%. Besides, the “Kill (%) 62 d” value in the assay with Aleurothrixus floccosus (62 d after treatment) is recorded as 92.1%. The “Kill (%) 76 d” value with Aleurothrixus floccosus (76 d after treatment) is recorded as 92.9%. Further, in the assay on Paratrioza cockerelli, the “Kill (%) 7 d” value amounted to 90% and the “Kill (%) 15 d” value worked out at 100%. Also, in assay [3], the “Kill (%) 58 days” value was found to be 92.3%. Also, the “Effect (%) 7 d” value with Myzus persicae [4] (7 d after first of two treatments) was 67%. For the same molecule, in the assay with Myzus persicae [4] (13 d after first of two treatments), the “Effect (%) 13 d” value amounted to 100%. The “Kill (%) 7 d” value in the assay with Myzus persicae [5] (7 d after treatment) is given as 99.7%. In the assay on Myzus persicae [5] (14 d after treatment), the “Kill (%) 14 d” value stood at 99.7%. The “Kill (%) 21 d” value in the assay with Myzus persicae [5] (21 d after treatment) is given as 98%. For the same molecule, in the assay with Myzus persicae [5] (29 d after treatment), the “Kill (%) 29 d” value is 97%. The “Kill (%) 24 d” value in the assay on Saissetia oleae (24 d after last of two treatments) was found to be 53.5%. Also, the “Kill (%) 44 d” value in the assay with Saissetia oleae (44 d after last of two treatments) came to 56.1%.

Consider `O=[N+]([O-])NC1=NCCN1Cc1ccc(Cl)nc1` [imidacloprid, reference compound], for which, in the assay on Myzus persicae [2], the “Effect (%) 7 d” value is recorded as 97.6%, the “Effect (%) 14 d” value came to 95.8% and the “Effect (%) 21 d” value is 78.1%. For the same molecule, in the assay with Paratrioza cockerelli, the “Kill (%) 7 d” value is 90% and the “Kill (%) 15 d” value stood at 0%.
